Results from patent publication US8258176B2, “Dithiolopyrrolone compounds, the preparation and the use thereof” (Shanghai Institute of Pharmaceutical Industry, priority 2007, dated 2012).
Like-named read-outs stand apart in the source and are kept apart here.

Experiments:
[1] = test system: bone marrow granulocyte series; assay: Bone marrow smear microscopic examination of CTX model mice; type: in vivo, BALB/c mice; conditions: bone marrow smear after treatment
[2] = test system: peripheral blood leukocytes of model mice; conditions: for NE % (percentage of neutrophils in the total number of white blood cells) / WBC count: CTX model mice
Experimental: Sample: series of dithiolopyrrolone compounds were dissolved in 0.5% CMC—Na to be suspension after grinding with Tween (less than 4% usage).
Cyclophosphamide for Injection (CTX), Shanghai Hualian Pharmaceutical Co., Ltd., batch number: 050606, prepared of being dissolved in saline.
SAIGELI (G-CSF), Shanghai Sunway Biotech Co., Ltd., batch number: 051001
Animal blood analyzer, model: HEMAVET950 • 2. Method
40 BALB/c mice, were randomly divided into five groups, blank control group, positive control (G-CSF) group (22.5 ug/kg), and two dithiolopyrrolone derivatives groups (compounds 001 and 004, 20 mg/kg), CTX model group (100 mg/kg), respectively with 8 mice in each group. rThe blank control group wasn't treated in any way, the other four groups were treated with CTX intraperitoneal injection, 100 mg/kg, once a day. […] G-CSF group was given G-CSF (22.5 ug/kg) subcutaneously once a day, one day after the completing of the injection of CTX. Dithiolopyrrolone derivatives groups were administered with dithiolopyrrolone derivatives (20 mg/kg), through gavaging once a day (0.5 ml), one day after the completing of the injection of CTX. The mice of model group and blank control group were administered with an equivalent 0.5% CMC—Na solution through gavaging.
Blood specimens were collected according to conventional method via the mice orbital vein, on the 0, 4, 6, 8 day respectively, when the day of administering CTX is set as the first day, then the peripheral blood routine test was carried out, and the effect of series of dithiolopyrrolone compounds on peripheral blood leukocytes of normal mice was analyzed. • 3. Results

[3] = test system: peripheral blood leukocytes of normal mice; assay: Effects on peripheral blood leukocytes of normal mice (peripheral blood routine test); type: in vivo; conditions: G-CSF 22.5 ug/kg sc once a day
From the text: Animal hematology analyzer, model: HEMAVET950 • 2. Method
The mice were divided into blank control group, positive control group and the dithiolopyrrolone series of compounds group, there are 10 mice in each group.

[4] = day 0 (before CTX 100 mg/kg ip x 3 days)
[5] = day 4, CTX 100 mg/kg ip days 1-3, compounds 20 mg/kg ig, G-CSF 22.5 ug/kg sc once a day from one day after CTX
[6] = day 6, CTX 100 mg/kg ip days 1-3, compounds 20 mg/kg ig, G-CSF 22.5 ug/kg sc once a day from one day after CTX
[7] = day 8, CTX 100 mg/kg ip days 1-3, compounds 20 mg/kg ig, G-CSF 22.5 ug/kg sc once a day from one day after CTX
[8] = day 0 (before administration), compounds 20 mg/kg ig once a day
[9] = day 3, compounds 20 mg/kg ig once a day
[10] = day 5, compounds 20 mg/kg ig once a day

## O=P1(N(CCCl)CCCl)NCCCO1 (stereo not shown) [CTX, Cyclophosphamide, reference compound]
[1]
  granulocyte series in bone marrow smear (microscopic examination): severely inhibited
[2]; CTX 100 mg/kg ip once a day, after three days of administration
  total number of white blood cells and percentage of neutrophils after CTX: significantly decreased
[2]; [4]
  NE % (percentage of neutrophils in the total number of white blood cells): 28.46%
  WBC count: 5.88e+09 L⁻¹
[2]; [5]
  NE % (percentage of neutrophils in the total number of white blood cells): 3.33%
  WBC count: 1.34e+09 L⁻¹
[2]; [6]
  NE % (percentage of neutrophils in the total number of white blood cells): 6.7%
  WBC count: 1.2e+09 L⁻¹
[2]; [7]
  NE % (percentage of neutrophils in the total number of white blood cells): 38.32%
  WBC count: 5.7e+09 L⁻¹

## COc1ccc(-n2c3cssc-3c(NC(=O)Oc3ccccc3)c2=O)c(OC)c1 [compound 001]
[1]
  granulocyte series in bone marrow smear (microscopic examination): significant hyperplasia and speeding up of the differentiation and maturation
[2]; [4]
  NE % (percentage of neutrophils in the total number of white blood cells): 27.32%
  WBC count: 5.98e+09 L⁻¹
[2]; [5]
  NE % (percentage of neutrophils in the total number of white blood cells): 2.48%
  WBC count: 1.21e+09 L⁻¹
[2]; [6]
  NE % (percentage of neutrophils in the total number of white blood cells): 42.71%
  WBC count: 2.75e+09 L⁻¹
[2]; [7]
  NE % (percentage of neutrophils in the total number of white blood cells): 76.84%
  WBC count: 1.844e+10 L⁻¹
[3]; [8]
  NE % (percentage of neutrophils in the total number of white blood cells): 33.73%
  WBC count: 7.89e+09 L⁻¹
[3]; [9]
  NE % (percentage of neutrophils in the total number of white blood cells): 67.44%
  WBC count: 1.824e+10 L⁻¹
[3]; [10]
  NE % (percentage of neutrophils in the total number of white blood cells): 72.13%
  WBC count: 2.496e+10 L⁻¹

## CCOC(=O)Nc1c2sscc-2n(-c2ccc(OC)cc2OC)c1=O [compound 004]
[1]
  granulocyte series in bone marrow smear (microscopic examination): significant hyperplasia and speeding up of the differentiation and maturation
[2]; [4]
  NE % (percentage of neutrophils in the total number of white blood cells): 18.65%
  WBC count: 5.86e+09 L⁻¹
[2]; [5]
  NE % (percentage of neutrophils in the total number of white blood cells): 4.34%
  WBC count: 1.11e+09 L⁻¹
[2]; [6]
  NE % (percentage of neutrophils in the total number of white blood cells): 36.47%
  WBC count: 1.42e+09 L⁻¹
[2]; [7]
  NE % (percentage of neutrophils in the total number of white blood cells): 87.62%
  WBC count: 1.528e+10 L⁻¹
[3]; [8]
  NE % (percentage of neutrophils in the total number of white blood cells): 31.56%
  WBC count: 7.65e+09 L⁻¹
[3]; [9]
  NE % (percentage of neutrophils in the total number of white blood cells): 56.36%
  WBC count: 1.336e+10 L⁻¹
[3]; [10]
  NE % (percentage of neutrophils in the total number of white blood cells): 78.24%
  WBC count: 1.866e+10 L⁻¹

## COc1ccc(-n2c3cssc-3c(NC(=O)OC(C)c3ccccc3)c2=O)c(OC)c1 (stereo not shown) [compound 020]
[3]; [8]
  NE % (percentage of neutrophils in the total number of white blood cells): 30.03%
  WBC count: 5.09e+09 L⁻¹
[3]; [9]
  NE % (percentage of neutrophils in the total number of white blood cells): 38.66%
  WBC count: 9.61e+09 L⁻¹
[3]; [10]
  NE % (percentage of neutrophils in the total number of white blood cells): 42.49%
  WBC count: 1.122e+10 L⁻¹

## COc1ccc(-n2c3cssc-3c(NC(=O)OCc3cccs3)c2=O)c(OC)c1 [compound 021]
[3]; [8]
  NE % (percentage of neutrophils in the total number of white blood cells): 29.78%
  WBC count: 5.22e+09 L⁻¹
[3]; [9]
  NE % (percentage of neutrophils in the total number of white blood cells): 36.52%
  WBC count: 9.93e+09 L⁻¹
[3]; [10]
  NE % (percentage of neutrophils in the total number of white blood cells): 49.65%
  WBC count: 1.122e+10 L⁻¹

## COc1ccc(-n2c3cssc-3c(NC(=O)Oc3cccnc3)c2=O)c(OC)c1 [compound 022]
[3]; [8]
  NE % (percentage of neutrophils in the total number of white blood cells): 31.23%
  WBC count: 6.86e+09 L⁻¹
[3]; [9]
  NE % (percentage of neutrophils in the total number of white blood cells): 38.98%
  WBC count: 1.003e+10 L⁻¹
[3]; [10]
  NE % (percentage of neutrophils in the total number of white blood cells): 47.74%
  WBC count: 1.211e+10 L⁻¹

## COc1ccc(-n2c3cssc-3c(NC(=O)N3CCOCC3)c2=O)c(OC)c1 [compound 023]
[3]; [8]
  NE % (percentage of neutrophils in the total number of white blood cells): 26.86%
  WBC count: 7.86e+09 L⁻¹
[3]; [9]
  NE % (percentage of neutrophils in the total number of white blood cells): 56.66%
  WBC count: 2.234e+10 L⁻¹
[3]; [10]
  NE % (percentage of neutrophils in the total number of white blood cells): 77.31%
  WBC count: 2.998e+10 L⁻¹

## COc1ccc(-n2c3cssc-3c(NC(=O)NCc3ccccc3)c2=O)c(OC)c1 [compound 024]
[3]; [8]
  NE % (percentage of neutrophils in the total number of white blood cells): 24.67%
  WBC count: 7.95e+09 L⁻¹
[3]; [9]
  NE % (percentage of neutrophils in the total number of white blood cells): 33.98%
  WBC count: 8.76e+09 L⁻¹
[3]; [10]
  NE % (percentage of neutrophils in the total number of white blood cells): 42.02%
  WBC count: 9.71e+09 L⁻¹

## COc1ccc(-n2c3cssc-3c(NC(=O)Nc3ccccc3)c2=O)c(OC)c1 [compound 026]
[3]; [8]
  NE % (percentage of neutrophils in the total number of white blood cells): 28.98%
  WBC count: 7.84e+09 L⁻¹
[3]; [9]
  NE % (percentage of neutrophils in the total number of white blood cells): 30.38%
  WBC count: 8.76e+09 L⁻¹
[3]; [10]
  NE % (percentage of neutrophils in the total number of white blood cells): 38.63%
  WBC count: 9.71e+09 L⁻¹

## CCSC(=O)Nc1c2sscc-2n(-c2ccc(OC)cc2OC)c1=O [compound 027]
[3]; [8]
  NE % (percentage of neutrophils in the total number of white blood cells): 24.45%
  WBC count: 8.76e+09 L⁻¹
[3]; [9]
  NE % (percentage of neutrophils in the total number of white blood cells): 45.46%
  WBC count: 1.122e+10 L⁻¹
[3]; [10]
  NE % (percentage of neutrophils in the total number of white blood cells): 48.37%
  WBC count: 1.254e+10 L⁻¹

B1: G-CSF: granulocyte colony-stimulating factor, SAIGELI, Shanghai Sunway Biotech Co., Ltd.; positive control (protein, UniProt P09919 31-207, looked up)
Granulocyte …: TPLGPASSLPQSFLLKCLEQVRKIQGDGAALQEKLVSECATYKLCHPEELVLLGHSLGIPWAPLSSCPSQALQLAGCLSQLHSGLFLYQGLLQALEGISPELGPTLDTLQLDVADFATTIWQQMEELGMAPALQPTQGAMPAFASAFQRRAGGVLVASHLQSFLEVSYRVLRHLAQP
[1]
  granulocyte series in bone marrow smear (microscopic examination): significant hyperplasia and speeding up of the differentiation and maturation
[2]; [4]
  NE % (percentage of neutrophils in the total number of white blood cells): 30.34%
  WBC count: 5.92e+09 L⁻¹
[2]; [5]
  NE % (percentage of neutrophils in the total number of white blood cells): 4.58%
  WBC count: 1.14e+09 L⁻¹
[2]; [6]
  NE % (percentage of neutrophils in the total number of white blood cells): 30.07%
  WBC count: 1.84e+09 L⁻¹
[2]; [7]
  NE % (percentage of neutrophils in the total number of white blood cells): 59.68%
  WBC count: 1.54e+10 L⁻¹
[3]; [8]
  NE % (percentage of neutrophils in the total number of white blood cells): 25.39%
  WBC count: 6.74e+09 L⁻¹
[3]; [9]
  NE % (percentage of neutrophils in the total number of white blood cells): 57.86%
  WBC count: 1.748e+10 L⁻¹
[3]; [10]
  NE % (percentage of neutrophils in the total number of white blood cells): 60.68%
  WBC count: 1.922e+10 L⁻¹
